Source: paper PMC5071873, “The Effects of Puerarin on Rat Ventricular Myocytes and the Potential Mechanism” (Scientific Reports, 2016)
Values belong to the molecule of their own block, whether it stands above or below them.

Tests used:
Type in all cases: cell-based
Kv7.1 [1] = biological target: T1, Kv7.1 (Homo sapiens, UniProt P51787); test: Whole-cell patch clamp of Kv7.1 currents (voltage steps) in transfected HEK293 cells; settings: activator alone, HEK293
T1 construct: expressed in transfected cells; host or cells: HEK293
Method: (§1) The Tyrode’s solution contained (mM): 126 NaCl, 5.4 KCl, 1.8 CaCl2, 1 MgCl2, 0.33 NaH2PO4, 10 HEPES and 10 glucose, pH 7.4 (adjusted with NaOH). The Ca^2+-free Tyrode’s solution was prepared by removing CaCl2 from the Tyrode’s solution. The Kreb’s solution used for cell storage contained (mM): 70 glutamic acid, 30 KCl, 15 taurine, 0.5 MgCl2, 10 KH2PO4, 0.5 EGTA, 10 HEPES, 10 glucose, and 1% albumin, pH 7.4 (adjusted with KOH). The enzyme solution used for the rat cardiomyocyte isolation contained 0.08 g/L collagenase (type II) and 1.0 g/L BSA in Kreb’s solution. For action potential recording on cardiomyocyte, the pipette solution contained (mM): 100 potassium aspartate, 30 KCl, 1 MgCl2, 5 Mg-ATP, 5 EGTA, 5 HEPES, pH 7.3 (adjusted with KOH); the Tyrode’s solution was used as the standard bath solution. For whole-cell recording of IKs on myocytes, the pipette solution contained (mM): 125 potassium aspartate, 20 KCl, 1 MgCl2, 5 Mg-ATP, 10 EGTA, 5 HEPES, pH 7.3 (adjusted with KOH); the bath solution contained (mM): 132 NaCl, 4 KCl, 1.8 CaCl2, 1.2 MgCl2, 10 HEPES, 5 glucose, pH 7.4 (adjusted with NaOH). 3 μM nifedipine and 5 μM E-4031 were used to block the calcium current and IKr, respectively. For whole-cell recording on HEK-293 cells, the pipette solution contained (mM): 140 KCl, 2 MgCl2, 10 HEPES, 0.1 EGTA, 4 K2-ATP, pH 7.3 (adjusted with KOH); the bath solution contained (mM): 120 NaCl, 5 KCl, 1.5 CaCl2, 1 MgCl2, 10 HEPES, 10 glucose, pH 7.4 (adjusted with NaOH). For single-channel recording, the pipette solution (extracellular) contained (mM): 145 KCl, 10 HEPES, 10 glucose, pH 7.4 (adjusted with KOH); the bath solution (intracellular) contained (mM): 145 KCl, 1.2 MgCl2, 10 HEPES, 0.1 EGTA, pH 7.38 (adjusted with KOH).
(§2) Cell suspensions were transferred into a chamber on the stage of a Nikon Eclipse Ti inverted microscope (Tokyo, Japan). The whole-cell recordings were performed using isolated single ventricular myocytes. Patch electrodes were pulled from a horizontal microelectrode puller (P-1000, Sutter Instrument Co, USA) and fire polished to final tip resistance of 4.0–8.0 MΩ when filled with internal solutions. Signals were amplified with an Axopatch 200B amplifier (Axon Instruments, USA) and filtered at 1 kHz. The pCLAMP 9.0 software was used to generate current and voltage clamp protocols, acquire data, and analyse the current traces. The whole-cell series resistance was compensated to more than 80%. All of the experiments were performed at room temperature (22 ± 1 °C). The whole-cell IK1 was elicited by a ramp voltage protocol from −140 to + 40 mV in 1 s, or at a 0 mV holding potential to test potentials from −140 to + 40 mV in 10 mV increments. The IK1 was calculated as the difference between the peak inward current and the holding current level. The whole-cell Kv7.1/IKs were elicited from a −30 mV holding potential to test potentials from −80 to + 40 mV in 10 mV increments.
(§3) Human Kir2.1 cDNA, Kir2.3 cDNA, Kv7.1 cDNA and KCNE1 cDNA, was cloned in Human Embryonic Kidney 293 cells, respectively. In some cases, Kv7.1 cDNA and KCNE1 cDNA were simultaneously cloned in Human Embryonic Kidney 293 cells.

Kv7.1 [2] = biological target: T1, Kv7.1; test: Single-channel inside-out patch clamp recording of Kv7.1; settings: 293B applied after puerarin 100 μM
Method: as §1, with “3 μM nifedipine and 5 μM E-4031 were used to block the calcium current and IKr, respectively. For whole-cell recording on HEK-293 cells, the pipette solution contained (mM): 140 KCl, 2 MgCl2, 10 HEPES, 0.1 EGTA, 4 K2-ATP, pH 7.3 (adjusted with KOH); the bath solution contained (mM): 120 NaCl, 5 KCl, 1.5 CaCl2, 1 MgCl2, 10 HEPES, 10 glucose, pH 7.4 (adjusted with NaOH). For single-channel recording, the pipette solution (extracellular) contained (mM): 145 KCl, 10 HEPES, 10 glucose, pH 7.4 (adjusted with KOH); the bath solution (intracellular) contained (mM): 145 KCl, 1.2 MgCl2, 10 HEPES, 0.1 EGTA, pH 7.38 (adjusted with KOH).” left out
(§4) Single-channel activity was recorded at a series of holding levels ranging from 10 mV of 50 mV. […] Single-channel events were listed and analysed by pclampfit 9.0 (single-channel search-in-analyse function). […]

IKs channel = biological target: T2, IKs channel (Homo sapiens, UniProt P51787); test: Single-channel inside-out patch clamp recording of IKs; settings: 293B applied after puerarin 100 μM
T2 construct: expressed in transfected cells; host or cells: HEK293
Method: as §1, with “3 μM nifedipine and 5 μM E-4031 were used to block the calcium current and IKr, respectively. For whole-cell recording on HEK-293 cells, the pipette solution contained (mM): 140 KCl, 2 MgCl2, 10 HEPES, 0.1 EGTA, 4 K2-ATP, pH 7.3 (adjusted with KOH); the bath solution contained (mM): 120 NaCl, 5 KCl, 1.5 CaCl2, 1 MgCl2, 10 HEPES, 10 glucose, pH 7.4 (adjusted with NaOH). For single-channel recording, the pipette solution (extracellular) contained (mM): 145 KCl, 10 HEPES, 10 glucose, pH 7.4 (adjusted with KOH); the bath solution (intracellular) contained (mM): 145 KCl, 1.2 MgCl2, 10 HEPES, 0.1 EGTA, pH 7.38 (adjusted with KOH).” left out
as §4

[3] = biological target: T3, IKs channels (KCNQ and KCNE) (Homo sapiens, UniProt P51787); test: Whole-cell patch clamp of IKs currents (Kv7.1 + KCNE1, voltage steps) in transfected HEK293 cells
T3 construct: expressed in transfected cells; host or cells: HEK293
Method: as §1, §2, §3

IKs = biological target: T4, IKs (Rattus norvegicus, UniProt Q9Z0N7); test: Whole-cell recording of IKs on rat ventricular myocytes; settings: forskolin alone
T4 construct: endogenous in cells; host or cells: isolated adult rat ventricular myocytes
Method: as §1, with “3 μM nifedipine and 5 μM E-4031 were used to block the calcium current and IKr, respectively. For whole-cell recording on HEK-293 cells, the pipette solution contained (mM): 140 KCl, 2 MgCl2, 10 HEPES, 0.1 EGTA, 4 K2-ATP, pH 7.3 (adjusted with KOH); the bath solution contained (mM): 120 NaCl, 5 KCl, 1.5 CaCl2, 1 MgCl2, 10 HEPES, 10 glucose, pH 7.4 (adjusted with NaOH). For single-channel recording, the pipette solution (extracellular) contained (mM): 145 KCl, 10 HEPES, 10 glucose, pH 7.4 (adjusted with KOH); the bath solution (intracellular) contained (mM): 145 KCl, 1.2 MgCl2, 10 HEPES, 0.1 EGTA, pH 7.38 (adjusted with KOH).” left out
Cell suspensions were transferred into a chamber on the stage of a Nikon Eclipse Ti inverted microscope (Tokyo, Japan). […] The IK1 was calculated as the difference between the peak inward current and the holding current level. […]

rat ventricular myocytes = test: Action potential recording on isolated rat ventricular myocytes; settings: isoproterenol 10 nM, comparing with control
Method: as §1
Single ventricular myocytes were isolated from adult rat hearts via enzymatic dissociation as previously described. Briefly, the rats were anesthetised with 25% chloral hydrate (0.1 g/100 g). Their hearts were excised rapidly and retrogradely perfused on a Langendorff apparatus with a Ca^2+-free Tyrode’s solution for 5 min before the perfusate was switched to an enzymatic solution for 10–20 min. The perfusate was finally changed to Kreb’s solution for 5 min. The perfusates were bubbled with 95% O2 + 5% CO2 and maintained at 37 °C. The ventricles w ere cut into small chunks and gently agitated in Kreb’s solution. The cells were filtered through nylon mesh (pore size 200 μm) and stored in Kreb’s solution at 4 °C.
Action potentials were elicited at 1 Hz by 2 ms current pulses applied using the patch pipette.
as §2

Molecule: 8-Bromoadenosine-3′, 5′-cyclic monophosphorothioate [8-Br-cAMP]
- effect on Kv7.1 current (Kv7.1 [1]): significantly enhanced

Molecule: CCS(=O)(=O)N(C)[C@H]1c2cc(C#N)ccc2OC(C)(C)[C@@H]1O [293B]
- open probability of Kv7.1 channel (Kv7.1 [2]): further abolished
- open probability of IKs channel (IKs channel): further abolished

Molecule: O=C(O)[C@H]1O[C@@H](Oc2cc3oc(-c4ccccc4)cc(=O)c3c(O)c2O)[C@H](O)[C@@H](O)[C@@H]1O [Baicalin]
- maximal increased effect upon IKs currents ([3]; HEK293): 57.32 ± 3.07%
- saturation dosage, enhancement of IKs ([3]; HEK293): 1 mM
- EC50 ([3]; at the peak currents, non-linear Hill fit, read-out: EC50, enhancement of IKs currents): 138 µM
- Hill coefficient, enhancement of IKs ([3]; non-linear Hill fit): 0.993

Second part, led by results:

- effect on Kv7.1 current (Kv7.1 [1]): significantly enhanced
- effect on IKs current in rat cardiac myocytes (IKs): significantly enhanced
Molecule: C=C[C@@]1(C)CC(=O)[C@]2(O)[C@@]3(C)[C@@H](O)CCC(C)(C)[C@@H]3[C@H](O)[C@H](OC(C)=O)[C@@]2(C)O1 [Forskolin]

- effect on Kv7.1 current (Kv7.1 [1]): significantly enhanced
Molecule: CC(C)NCC(O)c1ccc(O)c(O)c1 (centres unmarked) [Isoproterenol]
- effect on APD of rat ventricles (rat ventricular myocytes): significantly shortened
